The data set in a line: Solubility of risperidone in ethylene vinyl acetate copolymer. It counts as physicochemical. Particulars: ethylene vinyl acetate copolymer having a vinyl acetate content of 28%. The protocol: With risperidone is meant 3-[2-[4-(6-fluoro-1,2-benzisoxazol-3-yl)-1-piperidinyl]ethyl]-6,7,8,9-tetrahydro-2-methyl-4H-pyrido[1,2-a]pyrimidin-4-one. […] Solubility is measured as described in Laarhoven, J. A. H., et al. (2002), International Journal of Pharmaceutics 232, page 165.

As to `Cc1nc2n(c(=O)c1CCN1CCC(c3noc4cc(F)ccc34)CC1)CCCC2` [Risperidone, 3-[2-[4-(6-fluoro-1,2-benzisoxazol-3-yl)-1-piperidinyl]ethyl]-6,7,8,9-tetrahydro-2-methyl-4H-pyrido[1,2-a]pyrimidin-4-one], the “solubility in ethylene vinyl acetate copolymer” value stood at 0.1 wt %.

(Values after patent US20100203104A1, “DELIVERY SYSTEM FOR RISPERIDONE” (N.V. Organon, priority 2006, published 2010).)
